Our source for the Km values is US4965194A, “Pyruvate oxidase and an analytical method using the same” (Toyo Boseki Kabushiki Kaisha, priority 1986, dated 1990).

In this assay the test system is pyruvate oxidase (EC 1.2.3.3) of Lactobacillus sp. TE6103 (FERM BP-1419). As to the kind of experiment: Km determination of the thermostable pyruvate oxidase (physicochemical characteristics of the enzyme). Format: biochemical. The following applies: purified enzyme from Lactobacillus sp. TE6103; activity assay at 37° C., pH 7.0, with thiamine pyrophosphate and FAD; read-out: Km for pyruvic acid. How it is done: The activity of the resulting pyruvate oxidase can be measured as follows:
First, from the mixture of the ingredients listed above, 2.5 ml is sampled and placed in a test tube, and 0.5 ml of a 0.3 M solution of potassium pyruvate is added thereto. The mixture is then heated at 37° C. for 5 minutes. To this, 0.05 ml of the enzyme solution is added, and the mixture gently stirred; then, the changes (ΔOD) in the optical density at 500 nm over 1 minute of the mixture at 37° C. are monitored in a spectrophotometer against water. Next, in place of the enzyme solution, 0.05 ml of a 50 mM potassium phosphate buffer (pH 7.0) is used, and the same steps as above are followed to measure the changes (ΔOD) in optical density over 1 minute; this is the blank test. Under these conditions, the enzyme activity of pyruvate oxidase that produces 1 μmol of hydrogen peroxide is taken to be one unit (U).
The physicochemical characteristics of the enzyme activity of this invention will be shown below.

As usually defined, the Km is the concentration of substrate that gives half-maximal velocity. With `CC(=O)C(=O)O` [pyruvic acid], the Km is roughly 400 µM.
